Measured values taken from patent US20230391741A1, “AGAROFURAN COMPOUND, PREPARATION METHOD THEREFOR, AND APPLICATION THEREOF” (BEIJING CHY PHARMACEUTICAL TECHNOLOGY CO, LTD., priority 2021, published 2023).
“Also recorded” adds a separate entry of the source.

How the values were obtained:
[1] = test system: male ICR mice; test: Elevated plus maze (EPM) test, intraperitoneal injection; format: in vivo, mouse; conditions: for Open-arm residence times and entries compared with BAF: Tables 3 and 4, statistical differences at a low dose; for Efficacy compared with BAF: at low doses; for Closed arm number of entries / Closed arm residence time / Open arm number of entries / Open arm residence time / Open arm/closed arm frequency ratio / Open arm/closed arm time ratio: mice, intraperitoneal, 5 min before entering the maze
Source text: The active ingredient used in the following pharmacological experiment, the compound shown in Formula (I) of the present application, is the final product in Example 1 of the present application, namely (1R,6S,9R)6,10,10-trimethyl-2-(4,4,4-trifluorobutyl)-11-oxatricyclo [7.2.1.0^1,6]dodec-2-ene (hereinafter referred to as Compound 2). Compound 2 and an excipient PVP (povidone K30) were mixed in an ethanol solution in a mass ratio of 1:15, spin-dried, and prepared into a preparation form of Compound 2 (the following Compound 2 refers to the preparation form of Compound 2). The preparation form of which the active ingredient was 4-butyl-α-agarofuran (BAF for short) was used as a positive drug, a preparation method for this preparation was the same as that of the preparation of Compound 2, and the following BAF refers to this preparation of BAF. PVP was a blank control. In addition, the administration dose was calculated according to a crude drug.
This model is one of the most commonly used animal models in the research of antianxiety drugs. The elevated plus maze is composed of an open arm (30×5×0.5 cm) and an closed arm (30×8×15 cm) that are crossed in a positive cross shape, and the instrument is suspended 50 cm above the ground. Due to the narrowness, suspension, and brightness of the open arm, there may be internal “fear” or conflict in the open arm, and on the contrary, it more complies with the nature of rodents in the closed arm. 5 min after administration, a mouse is placed in the center of the maze, and its head faces to the open arm. Open-arm and closed-arm entries and residence times in both arms during the experimental period (usually 5 min) are recorded respectively. The percentages of the open arm entries and the open arm residence times respectively accounting for the total entries (sum of the open arm and closed arm entries) and the total time (sum of the open arm and closed arm residence times) are calculated, as an indicator for evaluating the anxiety. Generally speaking, a drug is considered to have antianxiety effects in the case that the open arm cumulative residence time is prolonged without reducing the open arm and closed arm entries.
The experiment used male Institute of Cancer Research (ICR) mice (purchased from Beijing Weitong Lihua Experimental Animal Technology Co., Ltd.), the weight was 18-20 g, the mice were randomly divided into 7 groups according to the weight, and there were 13 mice in each group. Grip adaptation training was conducted on the mice before the experiment. Before the experiment, the mice were fasted for 12 hours. It was administered by an intraperitoneal injection mode. 4-butyl-α-agarofuran (BAF for short) was used as a positive drug, and PVP was a blank control. The specific grouping and disposal modes are as follows:
During detection, after intraperitoneal injection of BAF/Compound 2, each mouse was immediately placed in an open animal box and allowed to move freely for 5 min, then the mouse was placed on a central platform of the elevated plus maze, its head faced to a fixed open arm. The detection was started, timed for 5 min, and recorded with a supermaze software by using a camera head. After all the experiments were completed, the residence times (s) of the mice in the open arm and the closed arm, the open arm and closed arm entries, and the time ratios and frequency ratios of the open arm and closed arm entries were recorded with the supermaze software. 1 was added to the number of entry arms with a latency of 0.

[2] = Plasma pharmacokinetics after intraperitoneal injection in mouse (UPLC-MS/MS); format: in vivo; conditions: for AUC(0-t) / half-life / Cmax: male, ICR; for AUC(0-t) / half-life: plasma; for AUC(0-t): 10 mg/kg, according to the above method, read-out: AUC(0-t); for AUC(0-t) / half-life / Pharmacokinetic properties compared with BAF: mouse; for AUC(0-t) / Pharmacokinetic properties compared with BAF: IP; for half-life / Cmax: IP 10 mg/kg; for Cmax: mouse plasma, prototype drug
Procedure: Positive control drug 4-butyl-α-agarofuran preparation (BAF) and Compound 2 preparation were administered intraperitoneally at a dose of 10 mg/kg/10 ml (calculated according to the crude drug), and a suspension was prepared by ultrasonic grinding with double distilled water. Male ICR mice, with a weight of 21-24 g, were purchased from SPF (Beijing) Biotechnology Co., Ltd.
12 mice were randomly divided into 4 groups, there were 3 parallel cross blood sampling points in each group (5 points in groups 1 and 3, and 6 points in groups 2 and 4), it was administered according to the weight, and blood was collected from the orbital venous plexus at 5 min, 10 min, […], 30 min, 1 h, 2 h, 4 h, 6 h, 8 h, 12 h, and 24 h after administration. The bloods at each time point were collected into Eppendorf (EP) tubes anticoagulated with heparin, and placed on ice and centrifuged at 8000 r/min×5 min, to separate plasma for later use.
20 μl of mouse blank plasma was taken, 55 μl of acetonitrile containing an internal standard solution (200 ng/mL, BAF crude drug and Compound 2 crude drug are mutual internal standards, namely BAF was used as the internal standard of Compound 2, and Compound 2 was used as the internal standard of BAF, similarly hereinafter) is added, 5 μl of a methanol working solution of the compound BAF or Compound 2 with different concentrations was respectively added and mixed uniformly, so that its final plasma concentrations were 0.2, 0.5, 2, 5, 10, 25, 50, 100, 200, 500, 750, and 1000 ng/ml respectively, centrifugation was conducted twice at a high speed of 13000 r/min×5 min, and 5 μl of a supernatant was taken for UPLC-MS/MS analysis.
10 μL of plasma was taken, 30 μL of acetonitrile containing internal standard solution (100 ng/mL) was added to precipitate proteins, after the material was centrifuged twice at a high speed of 13000 r/min×5 min, 5 μl of a supernatant was taken for UPLC-MS/MS analysis.
Chromatographic column: Symmetry C8 (2.1 mm×50 mm, 3.5 μm), column temperature: 25° C., mobile phase: acetonitrile (0.1% formic acid): water (0.1% formic acid)=70:30 gradient elution, flow rate: 0.2 mL/min, Parallel Reaction Monitoring (PRM) detection, BAF: m/z 263.2→245.2; and Compound 2: m/z 317.2→299.2.

Q: Which results are given for `CC1(C)O[C@]23C[C@H]1CC[C@]2(C)CCC=C3CCCCC(F)(F)F` [Compound 6, (1R,6S,9R)6,10,10-trimethyl-2-(5,5,5-trifluoropentyl)-11-oxatricyclo [7.2.1.0^1,6]dodec-2-ene]?
A: Open-arm residence times and entries compared with BAF [1]: prolonged; Efficacy compared with BAF [1]: better efficacy; Closed arm number of entries ([1]; 2.4 mg/kg): 11.00 ± 0.83; Closed arm residence time ([1]; 2.4 mg/kg): 129.22 ± 9.33 s; Open arm number of entries ([1]; 2.4 mg/kg): 9.11 ± 0.54; Open arm residence time ([1]; 2.4 mg/kg): 126.19 ± 8.01 s; Open arm/closed arm frequency ratio ([1]; 2.4 mg/kg): 0.86 ± 0.07; Open arm/closed arm time ratio ([1]; 2.4 mg/kg): 0.98 ± 0.15; Closed arm number of entries ([1]; 4.8 mg/kg): 10.00 ± 0.60; Closed arm residence time ([1]; 4.8 mg/kg): 154.33 ± 7.85 s; Open arm number of entries ([1]; 4.8 mg/kg): 8.88 ± 0.55; Open arm residence time ([1]; 4.8 mg/kg): 116.53 ± 6.42 s; Open arm/closed arm frequency ratio ([1]; 4.8 mg/kg): 0.90 ± 0.05; Open arm/closed arm time ratio ([1]; 4.8 mg/kg): 0.78 ± 0.07; Closed arm number of entries ([1]; 9.6 mg/kg): 8.56 ± 1.19; Closed arm residence time ([1]; 9.6 mg/kg): 140.04 ± 15.48 s; Open arm number of entries ([1]; 9.6 mg/kg): 8.78 ± 1.53; Open arm residence time ([1]; 9.6 mg/kg): 111.29 ± 11.05 s; Open arm/closed arm frequency ratio ([1]; 9.6 mg/kg): 1.06 ± 0.13; Open arm/closed arm time ratio ([1]; 9.6 mg/kg): 0.91 ± 0.17; AUC(0-t) [2]: 142 ng·h/mL; half-life [2]: 1.39 h; Cmax [2]: 342 ng/mL; Pharmacokinetic properties compared with BAF [2]: superior to BAF; also recorded: better pharmacokinetic properties

Q: For `[2H]C1[C@H]2CC[C@]3(C)CC([2H])([2H])C=C(CCCC(F)(F)F)[C@@]13OC2(C)C` (stereo partly drawn) [Compound 8, (1R,6R,9R)6,10,10-trimethyl-2-(4,4,4-trifluorobutyl)-4,4,10-trideuterium-11-oxatricyclo [7.2.1.0^1,6]dodec-2-ene], which “Open-arm residence times and entries compared with BAF” value [1] is on record?
A: The value was “prolonged”.

Q: And the “Efficacy compared with BAF” value [1]?
A: Its value is “better efficacy”.

Q: And the “Closed arm number of entries” value ([1]; 2.4 mg/kg)?
A: The value was 10.86 ± 1.30.

Q: What about the “Closed arm residence time” value ([1]; 2.4 mg/kg) of the same compound?
A: The value was 126.36 ± 11.90 s.

Q: What about the “Open arm number of entries” value ([1]; 2.4 mg/kg) of the same compound?
A: The value was 9.43 ± 0.78.

Q: What about the “Open arm residence time” value ([1]; 2.4 mg/kg) of the same compound?
A: The value was 134.90 ± 9.73 s.

Q: And the “Open arm/closed arm frequency ratio” value ([1]; 2.4 mg/kg)?
A: Its value is 0.93 ± 0.10.

Q: And the “Open arm/closed arm time ratio” value ([1]; 2.4 mg/kg)?
A: Its value is 1.20 ± 0.26.

Q: What about the “Closed arm number of entries” value ([1]; 4.8 mg/kg) of the same compound?
A: The value was 10.00 ± 0.63.

Q: And the “Closed arm residence time” value ([1]; 4.8 mg/kg)?
A: The value was 147.85 ± 10.01 s.

Q: What about the “Open arm number of entries” value ([1]; 4.8 mg/kg) of the same compound?
A: The value was 9.10 ± 0.87.

Q: What about the “Open arm residence time” value ([1]; 4.8 mg/kg) of the same compound?
A: The value was 117.97 ± 8.25 s.

Q: And the “Open arm/closed arm frequency ratio” value ([1]; 4.8 mg/kg)?
A: The value was 0.93 ± 0.10.

Q: What about the “Open arm/closed arm time ratio” value ([1]; 4.8 mg/kg) of the same compound?
A: Its value is 0.88 ± 0.14.

Q: And the “Closed arm number of entries” value ([1]; 9.6 mg/kg)?
A: The value was 10.00 ± 1.20.

Q: What about the “Closed arm residence time” value ([1]; 9.6 mg/kg) of the same compound?
A: The value was 139.21 ± 14.30 s.

Q: And the “Open arm number of entries” value ([1]; 9.6 mg/kg)?
A: The value was 8.70 ± 0.94.

Q: What about the “Open arm residence time” value ([1]; 9.6 mg/kg) of the same compound?
A: The value was 112.96 ± 9.69 s.

Q: And the “Open arm/closed arm frequency ratio” value ([1]; 9.6 mg/kg)?
A: The value was 0.90 ± 0.07.

Q: What about the “Open arm/closed arm time ratio” value ([1]; 9.6 mg/kg) of the same compound?
A: Its value is 0.93 ± 0.16.

Q: What about the AUC(0-t) [2] of the same compound?
A: The AUC(0-t) was 148 ng·h/mL.

Q: And the half-life [2]?
A: The half-life was 1.41 h.

Q: What about the Cmax [2] of the same compound?
A: Its Cmax is 350 ng/mL.

Q: And the “Pharmacokinetic properties compared with BAF” value [2]?
A: Its value is “superior to BAF; also recorded: better pharmacokinetic properties”.
